Test [1] concerns the target Protein disulfide-isomerase (Homo sapiens, UniProt P07237). As to the kind of experiment: PDI inhibitors, insulin turbidity readout, confirmation, biochemical, dry powder samples, set 2 (AID 652146).
Test [2] is described as follows: PAX5 activity inhibitors, dose response, selectivity assay for PAX8 inhibitor project, cell-based, plate reader, dry powder samples (AID 743047).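 Note: HEK293 cells carrying a Pax5 driven CD19 promoter luciferase reporter; potency of inhibitors that lower reporter luminescence.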 Format: functional.
The nature of test [3]: cytotoxicity in OV-90 ovarian cancer cells, dose response, PAX8 inhibitor project, cell-based, plate reader, dry powder, SA8 (AID 743149). Format: functional.
The nature of test [4]: PAX2 cell-based inhibition, dose response, selectivity assay for PAX8 inhibitor project, plate reader, dry powder samples (AID 743048).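 Note: HEK293 cells carrying a WT1 promoter luciferase reporter driven by expressed Pax2; potency is for inhibition of Pax2 driven reporter signal.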 Format: functional.
For test [5], the system named is Streptococcus sp. 'group A'. As to the kind of experiment: growth inhibition of control SK(-) GAS strain, dose response, counter-screen for streptokinase expression inhibitor project, luminescence, kanamycin, BacTiterGlo, confirmation (AID 1900). Format: functional, organism-based. For orientation: Counterscreens check selectivity or assay interference.
Test [6] deals with Major prion protein (Homo sapiens, UniProt P04156). Format: functional, cell-based.
Test [7] concerns the target T1, Calpain-2 catalytic subunit (Sus scrofa, UniProt P43367).
T1 sequence (P43367 whole entry): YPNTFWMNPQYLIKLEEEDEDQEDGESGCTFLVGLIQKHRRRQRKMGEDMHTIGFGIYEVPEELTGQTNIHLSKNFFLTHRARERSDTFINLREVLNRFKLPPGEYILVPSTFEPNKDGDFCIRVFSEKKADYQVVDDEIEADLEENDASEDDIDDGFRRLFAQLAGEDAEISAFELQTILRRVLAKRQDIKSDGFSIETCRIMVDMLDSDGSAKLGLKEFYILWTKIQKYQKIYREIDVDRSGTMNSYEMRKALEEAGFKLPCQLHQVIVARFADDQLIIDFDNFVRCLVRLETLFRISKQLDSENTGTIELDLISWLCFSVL
As to the kind of experiment: pig calpain II inhibitor potency, dose response, biochemical, fluorogenic peptide substrate (AID 1420). It counts as functional.

Test [8] concerns Streptococcus. Kind of test: Group A Streptococcus viability loss, dose response, counter-screen for streptokinase expression inhibitor project, luminescence, BacTiterGlo (AID 1915).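 Note: potency for reduction of bacterial viability or growth.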 Format: functional, organism-based.
The nature of test [9]: cells.
In test [10] the target is T2, Streptokinase A (Streptococcus pyogenes serotype M1, UniProt P10520).
T2 sequence (P10520 whole entry): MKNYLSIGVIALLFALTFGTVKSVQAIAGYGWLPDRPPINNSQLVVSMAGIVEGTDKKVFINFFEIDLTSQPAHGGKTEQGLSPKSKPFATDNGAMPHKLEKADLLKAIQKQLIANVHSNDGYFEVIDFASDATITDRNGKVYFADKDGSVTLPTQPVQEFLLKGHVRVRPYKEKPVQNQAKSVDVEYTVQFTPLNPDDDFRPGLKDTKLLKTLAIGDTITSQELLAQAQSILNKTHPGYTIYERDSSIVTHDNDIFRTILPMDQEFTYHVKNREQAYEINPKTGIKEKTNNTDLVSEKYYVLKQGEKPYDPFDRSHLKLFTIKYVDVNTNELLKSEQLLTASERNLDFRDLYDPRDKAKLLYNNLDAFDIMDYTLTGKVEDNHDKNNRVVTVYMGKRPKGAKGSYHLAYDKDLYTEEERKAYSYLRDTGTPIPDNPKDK
As to the kind of experiment: S. pyogenes streptokinase expression inhibitors, potency, dose response, plasminogen activation absorbance, OD405 (AID 1914).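 Note: secreted streptokinase activity via plasminogen activation per viability signal from cell pellet.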 Format: functional, Streptococcus pyogenes M1 GAS.

Test [11] can be described thus: HEp-2 cell cytotoxicity, dose response, cytotoxicity control for RSV inhibitor project, HTS (AID 2410). Format: functional. The note with it: human respiratory syncytial virus.
Test [12] deals with Dual specificity tyrosine-phosphorylation-regulated kinase 1A (Rattus norvegicus, UniProt Q63470). It counts as biochemical, Homo sapiens.
A short description of test [13]: HeLa cell cytotoxicity, dose response, cytotoxicity control for MgcRacGAP inhibitor project (AID 624300). Format: functional.
For test [14], the target named is Tyrosyl-DNA phosphodiesterase 2 (Homo sapiens, UniProt O95551). Kind of test: human TDP2 enzyme inhibitors, dose response, biochemical, epi absorbance, IC50 (AID 743297).
In test [15] the target is T3, Rac GTPase-activating protein 1 (Homo sapiens, UniProt Q9H0H5).
T3 sequence (Q9H0H5 whole entry): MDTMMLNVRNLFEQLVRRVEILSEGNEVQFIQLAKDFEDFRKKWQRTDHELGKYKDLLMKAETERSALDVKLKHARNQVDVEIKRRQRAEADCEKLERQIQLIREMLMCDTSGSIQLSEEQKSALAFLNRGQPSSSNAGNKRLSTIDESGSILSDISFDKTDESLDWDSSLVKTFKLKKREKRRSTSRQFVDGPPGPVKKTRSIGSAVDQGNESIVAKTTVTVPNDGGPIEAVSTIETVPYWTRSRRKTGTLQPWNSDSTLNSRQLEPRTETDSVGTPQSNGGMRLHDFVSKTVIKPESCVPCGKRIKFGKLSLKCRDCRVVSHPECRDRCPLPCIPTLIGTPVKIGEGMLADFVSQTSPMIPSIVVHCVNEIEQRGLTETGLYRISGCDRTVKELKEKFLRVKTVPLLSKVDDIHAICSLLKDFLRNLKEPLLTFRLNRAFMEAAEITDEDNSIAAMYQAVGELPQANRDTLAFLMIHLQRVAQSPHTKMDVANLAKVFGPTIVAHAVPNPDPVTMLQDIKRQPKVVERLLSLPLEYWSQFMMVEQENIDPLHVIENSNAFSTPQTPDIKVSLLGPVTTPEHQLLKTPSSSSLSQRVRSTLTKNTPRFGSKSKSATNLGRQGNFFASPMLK
As to the kind of experiment: MgcRacGAP GTPase-activating activity inhibitors, confirmation, biochemical, ADP Hunter fluorescence, primary and confirmatory (AID 624330). Format: functional.

The nature of test [16]: Counterscreen for activators of the function of SWI/SNF related, matrix associated, actin dependent regulator of chromatin, subfamily a, member 2 (SMARCA2, BRM): Luminescence-based cell-based high throughput dose response assay to identify non-selective compounds using the VP16 reporter assay. Format: functional.
Test [17] relates to HeLa. Kind of test: HeLa cell cytotoxicity, dose response, cytotoxicity control, 24 h, cherry-picked samples (AID 504726).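 Note: potency for cytotoxicity as loss of luminescence signal.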 It counts as functional, cell-based. The note with it: Homo sapiens.
Test [18] has as its target T4, Histone-lysine N-methyltransferase NSD2 (Homo sapiens, UniProt O96028).
T4 sequence (O96028 whole entry): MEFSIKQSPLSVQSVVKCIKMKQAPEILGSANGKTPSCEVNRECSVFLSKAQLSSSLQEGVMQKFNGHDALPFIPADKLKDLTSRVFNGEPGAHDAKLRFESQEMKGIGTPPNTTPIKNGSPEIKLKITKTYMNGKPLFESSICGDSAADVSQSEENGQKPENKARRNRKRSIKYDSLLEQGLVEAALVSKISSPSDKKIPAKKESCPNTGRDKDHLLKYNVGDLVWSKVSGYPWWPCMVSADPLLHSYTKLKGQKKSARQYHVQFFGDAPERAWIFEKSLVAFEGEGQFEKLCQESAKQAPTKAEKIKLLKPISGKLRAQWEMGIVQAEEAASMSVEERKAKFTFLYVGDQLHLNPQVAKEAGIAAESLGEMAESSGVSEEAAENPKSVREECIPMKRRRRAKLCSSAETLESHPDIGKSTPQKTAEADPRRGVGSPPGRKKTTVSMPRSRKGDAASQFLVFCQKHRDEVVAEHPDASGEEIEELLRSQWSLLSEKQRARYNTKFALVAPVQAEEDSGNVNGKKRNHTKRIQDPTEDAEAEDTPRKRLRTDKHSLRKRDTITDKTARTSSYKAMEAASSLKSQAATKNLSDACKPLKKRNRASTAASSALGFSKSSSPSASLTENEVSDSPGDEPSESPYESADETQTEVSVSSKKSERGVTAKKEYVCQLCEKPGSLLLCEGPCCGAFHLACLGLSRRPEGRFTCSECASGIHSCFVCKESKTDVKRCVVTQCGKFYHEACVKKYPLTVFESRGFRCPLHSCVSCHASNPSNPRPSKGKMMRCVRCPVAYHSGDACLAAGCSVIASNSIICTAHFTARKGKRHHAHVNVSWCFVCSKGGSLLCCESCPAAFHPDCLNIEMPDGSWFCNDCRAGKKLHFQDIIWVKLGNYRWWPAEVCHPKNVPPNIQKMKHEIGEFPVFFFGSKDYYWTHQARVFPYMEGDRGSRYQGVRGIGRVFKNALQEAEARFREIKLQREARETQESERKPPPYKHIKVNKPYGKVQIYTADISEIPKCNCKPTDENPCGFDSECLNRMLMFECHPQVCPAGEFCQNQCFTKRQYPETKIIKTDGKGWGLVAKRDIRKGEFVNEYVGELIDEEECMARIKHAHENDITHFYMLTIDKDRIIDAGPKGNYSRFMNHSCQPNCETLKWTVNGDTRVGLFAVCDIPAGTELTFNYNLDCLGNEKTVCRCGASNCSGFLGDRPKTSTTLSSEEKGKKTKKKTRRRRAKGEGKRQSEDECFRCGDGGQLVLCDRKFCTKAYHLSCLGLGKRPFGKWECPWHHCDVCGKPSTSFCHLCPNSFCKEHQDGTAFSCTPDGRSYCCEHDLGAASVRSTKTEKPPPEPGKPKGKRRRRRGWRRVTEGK
Format: biochemical.

In test [19] the target is SWI/SNF-related matrix-associated actin-dependent regulator of chromatin subfamily A member 2 (Homo sapiens, UniProt P51531). As to the kind of experiment: Luminescence-based cell-based high throughput dose response assay to identify activators of the function of SWI/SNF related, matrix associated, actin dependent regulator of chromatin, subfamily a, member 2 (SMARCA2, BRM). Format: functional.

The target in test [20] is ORF 73 (Human herpesvirus 8, UniProt O40947). As to the kind of experiment: inhibitors of C-LANA binding to LBS DNA, dose response, biochemical, fluorescence polarization, cherry-picked samples (AID 504725).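 Note: fluorescence polarization of a labeled DNA duplex reporting LANA DNA binding; potency is for inhibitors that block LANA binding to the DNA.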 The arrangement: species or system Human gammaherpesvirus 8. For orientation: In fluorescence polarisation assays a small probe gives low polarisation when free and higher when bound to something large.

Data on four molecules can be found in ChEMBL document CHEMBL1201862, “PubChem BioAssay data set” (2004).

Calls of active or inactive are those of the source. A value given as a limit tells only on which side of the number the result lay.

As usually defined, the AC50 is the midpoint of the concentration-response curve, whichever way the signal moves. Consider `C=CCOc1ccc(CN2CCC(CCOc3ccccc3)(C(=O)O)CC2)cc1Cl`, for which the concentration at half-maximal activity (AC50) in [1] is 20 µM (active).

Take `COc1cccc(C#Cc2ccc([C@@H]3[C@@H](C#N)N(C(=O)C4CCCC4)[C@@H]3CO)cc2)c1`: the AC50 in [2] was 30.7 µM (active); in test [3], > 70 µM (inactive); in test [4], 31.6 µM (active).

One may read the EC50 as the midpoint of the concentration-response curve. Broadly, the IC50 is the concentration at which inhibition is half-maximal. As a reminder, the CC50 is the concentration at which the toxic effect on the cells reaches its halfway point. For `Cc1nc(-c2ccc(S(=O)(=O)Nc3ccc(Br)cc3Cl)s2)cs1`, the concentration giving a half-maximal response (EC50) in test [5] is 3.04 µM (active); in test [8], 11.9 µM (active); in test [10] it was 3.98 µM (active). The IC50 in test [6] was 12.5 µM (inactive); in test [7] it was 12.2 µM (active); in test [9] it was > 138 µM (inactive). The CC50 in test [11] was 16.6 µM (active).

Regarding `CCN(CC)CCCNc1ccc2ncn3c4ccc(O)cc4c(=O)c1c23`, the AC50 was 2.77 µM (active) in test [12], > 350 µM (inactive) in test [17], 12.7 µM (active) in test [18] and 2.05 µM (active) in [20]. Also, the CC50 in [13] was 89.3 µM (active). Besides, the IC50 was > 128 µM (inactive) in [14] and 56.4 µM (active) in [15]. Also, the EC50 in [16] is > 91.2 µM (inactive); in test [19], 20.5 µM (inactive).
